Experimental findings from ChEMBL document CHEMBL5375952, “Discovery of Novel 8-Hydroxyquinoline Derivatives with Potent In Vitro and In Vivo Antifungal Activity” (J Med Chem, 2023) are described below.

The test system of series [1] is Candida albicans. Description: Antifungal activity against Candida albicans SC5314 assessed as fungal growth inhibition incubated for 48 hrs in presence of Cu2+ by broth microdilution method (reference value: 0.0625 ug/ml). In kind it is functional. In general terms: Broth dilution looks for growth in wells or tubes with falling amounts of substance.
Series [2] has as its system Candida albicans. Kind of series: Synergistic antifungal activity against FLC-resistant Candida albicans 10 assessed as MIC of FLC incubated for 48 hrs by broth microdilution method. The format is functional.
The test system of series [3] is Candida albicans. Description: Synergistic antifungal activity against FLC-resistant Candida albicans 17 assessed as MIC of FLC incubated for 48 hrs by broth microdilution method. The format is functional.
The test system of series [4] is Candida albicans. Description: Synergistic antifungal activity against FLC-resistant Candida albicans 249 assessed as MIC of FLC incubated for 48 hrs by broth microdilution method. In kind it is functional.
In series [5] the test system is Candida albicans. Kind of series: Synergistic antifungal activity against FLC-resistant Candida albicans 385 assessed as MIC of FLC incubated for 48 hrs by broth microdilution method. The format is functional.
Series [6] concerns Candida albicans. Description: Synergistic antifungal activity against FLC-resistant Candida albicans 5740 assessed as MIC of FLC incubated for 48 hrs by broth microdilution method. In kind it is functional.
Series [7] deals with Candida albicans. Description: Synergistic antifungal activity against FLC-resistant Candida albicans 64548 assessed as MIC of FLC incubated for 48 hrs by broth microdilution method. The format is functional.
In series [8] the test system is Candida albicans. Kind of series: Synergistic antifungal activity against FLC-resistant Candida albicans 710419 assessed as MIC of FLC incubated for 48 hrs by broth microdilution method. In kind it is functional.
The test system of series [9] is Candida albicans. Description: Synergistic antifungal activity against FLC-resistant Candida albicans 710452 assessed as MIC of FLC incubated for 48 hrs by broth microdilution method. The format is functional.
Series [10] concerns Candida albicans. Kind of series: Synergistic antifungal activity against FLC-resistant Candida albicans 8 assessed as fungal growth inhibition incubated for 48 hrs in presence of FLC by broth microdilution method. In kind it is functional.
Series [11] concerns Candida albicans. Kind of series: Synergistic antifungal activity against FLC-resistant Candida albicans 14 assessed as fungal growth inhibition incubated for 48 hrs in presence of FLC by broth microdilution method. The format is functional.
Series [12] deals with Candida albicans. Description: Synergistic antifungal activity against FLC-resistant Candida albicans 241 assessed as fungal growth inhibition incubated for 48 hrs in presence of FLC by broth microdilution method. The format is functional.
Series [13] concerns Candida albicans. Description: Synergistic antifungal activity against FLC-resistant Candida albicans 249 assessed as fungal growth inhibition incubated for 48 hrs in presence of FLC by broth microdilution method. The format is functional.
For series [14], the system named is Candida albicans. Description: Synergistic antifungal activity against FLC-resistant Candida albicans 305 assessed as fungal growth inhibition incubated for 48 hrs in presence of FLC by broth microdilution method. The format is functional.
The test system of series [15] is Candida albicans. Description: Synergistic antifungal activity against FLC-resistant Candida albicans 379 assessed as fungal growth inhibition incubated for 48 hrs in presence of FLC by broth microdilution method. In kind it is functional.
The subject of series [16] is Candida albicans. Description: Synergistic antifungal activity against FLC-resistant Candida albicans 1221 assessed as fungal growth inhibition incubated for 48 hrs in presence of FLC by broth microdilution method. In kind it is functional.
For series [17], the system named is Candida albicans. Description: Synergistic antifungal activity against FLC-resistant Candida albicans 5740 assessed as fungal growth inhibition incubated for 48 hrs in presence of FLC by broth microdilution method. The format is functional.
Series [18] concerns Candida albicans. Description: Synergistic antifungal activity against FLC-resistant Candida albicans 512681 assessed as fungal growth inhibition incubated for 48 hrs in presence of FLC by broth microdilution method. In kind it is functional.
The test system of series [19] is Candida albicans. Kind of series: Synergistic antifungal activity against FLC-resistant Candida albicans 710419 assessed as fungal growth inhibition incubated for 48 hrs in presence of FLC by broth microdilution method. In kind it is functional.
The test system of series [20] is Candida albicans. Kind of series: Synergistic antifungal activity against FLC-resistant Candida albicans 710513 assessed as fungal growth inhibition incubated for 48 hrs in presence of FLC by broth microdilution method. In kind it is functional.
Series [21] has as its system Candida albicans. Description: Synergistic antifungal activity against FLC-resistant Candida albicans 14 assessed as fractional inhibitory concentration index incubated for 48 hrs in presence of FLC by broth microdilution method. In kind it is functional.
Series [22] has as its system Candida albicans. Description: Synergistic antifungal activity against FLC-resistant Candida albicans 17 assessed as fractional inhibitory concentration index incubated for 48 hrs in presence of FLC by broth microdilution method. In kind it is functional.
Series [23] deals with Candida albicans. Description: Synergistic antifungal activity against FLC-resistant Candida albicans 249 assessed as fractional inhibitory concentration index incubated for 48 hrs in presence of FLC by broth microdilution method. The format is functional.
Series [24] concerns Candida albicans. Kind of series: Synergistic antifungal activity against FLC-resistant Candida albicans 395 assessed as fractional inhibitory concentration index incubated for 48 hrs in presence of FLC by broth microdilution method. In kind it is functional.
Series [25] relates to Candida albicans. Description: Synergistic antifungal activity against FLC-resistant Candida albicans 819 assessed as fractional inhibitory concentration index incubated for 48 hrs in presence of FLC by broth microdilution method. In kind it is functional.
The test system of series [26] is Candida albicans. Description: Synergistic antifungal activity against FLC-resistant Candida albicans 512681 assessed as fractional inhibitory concentration index incubated for 48 hrs in presence of FLC by broth microdilution method. The format is functional.
The test system of series [27] is Candida albicans. Kind of series: Synergistic antifungal activity against FLC-resistant Candida albicans 710452 assessed as fractional inhibitory concentration index incubated for 48 hrs in presence of FLC by broth microdilution method. In kind it is functional.
Series [28] concerns Candida albicans. Description: Synergistic antifungal activity against FLC-resistant Candida albicans 710513 assessed as fractional inhibitory concentration index incubated for 48 hrs in presence of FLC by broth microdilution method. In kind it is functional.
The test system of series [29] is Candida albicans. Description: Synergistic antifungal activity against Candida albicans 0304103 assessed as fungal growth inhibition at 4 ug/ml incubated for 48 hrs in presence of FLC by time-kill assay. The format is functional, organism-based. To be noted: dose 4.0 µg/ml.
Series [30] deals with Candida albicans. Description: Synergistic antifungal activity against Candida albicans 0304103 assessed as reduction in fungal growth at 8 ug/ml incubated for 48 hrs in presence of FLC by time-kill assay. In kind it is functional. The settings on record: dose 8 µg/ml.
The subject of series [31] is Candida albicans. Kind of series: Inhibition of hypha formation in Candida albicans SC5314 at 4 ug/ml incubated for 3 hrs by inverted phase contrast microscopy. In kind it is functional, organism-based. To be noted: dose 4.0 µg/ml.
In series [32] the test system is Candida albicans. Kind of series: Synergistic inhibition of hypha formation in Candida albicans SC5314 at 4 to 16 ug/ml incubated for 3 hrs in presence of FLC by inverted phase contrast microscopy. In kind it is functional, organism-based. The settings on record: dose 4-16 µg/ml.
The subject of series [33] is Candida albicans. Description: Inhibition of biofilm formation of Candida albicans SC5314 at 4 ug/ml incubated for 24 hrs by XTT assay relative to control. In kind it is functional.
Series [34] deals with Candida albicans. Kind of series: Synergistic inhibition of biofilm formation of Candida albicans SC5314 at 2 ug/ml incubated for 24 hrs in presence of 0.0625 ug/ml of FLC by XTT assay relative to control. In kind it is functional. A general note: Tetrazolium assays rely on reduction of a dye to a coloured formazan, in cell work by metabolically active cells.
The subject of series [35] is Candida albicans. Kind of series: Antifungal activity against Candida albicans SC5314 infected in C57BL/6 mouse assessed as mean fungal burden at 2 mg/kg, ip measured after 46 hrs by plate count method (reference value: 6.902 log10CFU/ml). In kind it is functional.
The subject of series [36] is Candida albicans. Kind of series: Antifungal activity against Candida albicans SC5314 infected in C57BL/6 mouse assessed as mean fungal burden at 2 mg/kg, ip measured after 46 hrs in presence of FLC by plate count method (reference value: 6.902 log10CFU/ml). In kind it is functional.
Series [37] is described as follows: Cmax in Sprague-Dawley rat at 5 mg/kg, po by LC-MS/MS analysis. Also on record: dose 5 mg/kg, route po. The format is ADME, organism-based. To be noted: in vivo.
Series [38] can be described thus: AUC (0 to infinity) in Sprague-Dawley rat at 5 mg/kg, po by LC-MS/MS analysis. In kind it is ADME, organism-based. To be noted: in vivo. The arrangement: dose 5 mg/kg, route po.
The test system of series [39] is Candida albicans. Kind of series: Antifungal activity against Candida albicans SC5314 infected in C57BL/6 mouse assessed as mean fungal burden at 0.25 mg/kg, ip measured after 46 hrs by plate count method (reference value: 6.902 log10CFU/ml). The format is functional.

The source made the active and inactive calls. The rule behind the calls is not given here.

Consider `CCN(CC)c1ccc(C(NC(=O)C(C)C)c2ccc3cccnc3c2O)cc1` (centres undefined), for which the MIC (usually the least concentration at which growth counts as inhibited) amounted to 128 µg/mL in the series with Candida albicans [1]; 0.25 µg/mL in the series on Candida albicans [2]; 0.125 µg/mL in the series with Candida albicans [3]; 0.125 µg/mL in the series on Candida albicans [4]; 2 µg/mL in the series with Candida albicans [5]; 2 µg/mL in the series with Candida albicans [6]. In addition, the minimal inhibitory concentration (MIC) was 0.063 µg/mL with Candida albicans [7]; 0.25 µg/mL with Candida albicans [8]; 0.25 µg/mL with Candida albicans [9]; 0.031 µg/mL in the series on Candida albicans [10]; 0.016 µg/mL in the series on Candida albicans [11]; 0.016 µg/mL in the series on Candida albicans [12]. In addition, the minimum inhibitory concentration (MIC) in the series with Candida albicans [13] was found to be 0.008 µg/mL; in the series with Candida albicans [14] it was 0.016 µg/mL; with Candida albicans [15] it was 0.008 µg/mL; in the series with Candida albicans [16] it was 0.031 µg/mL; in the series with Candida albicans [17], 0.016 µg/mL; with Candida albicans [18], 0.031 µg/mL. The MIC in the series with Candida albicans [19] was found to be 0.031 µg/mL; in the series with Candida albicans [20] it was 0.016 µg/mL. The “fractional inhibitory concentration index (FICI)” value in the series on Candida albicans [21] turned out to be 0.133; with Candida albicans [22], 0.035; with Candida albicans [23] it was 0.035; in the series on Candida albicans [24], 0.133; with Candida albicans [25], 0.133; in the series on Candida albicans [26], 0.127. Also, the entries for the “fractional inhibitory concentration index (FICI)” value in the series on Candida albicans [27] and in the series with Candida albicans [28] were 0.127 and 0.039, respectively. Further, the “growth inhibition (GI)” value in the series with Candida albicans [29] is “Active”. In addition, the Activity in the series on Candida albicans [30] is reported as greater than 3 log10CFU/ml; in the series with Candida albicans [35], 6.318 log10CFU/ml; in the series with Candida albicans [36], 5.244 log10CFU/ml. In the series on Candida albicans [31], the inhibition (in general, the percentage by which the read-out fell short of the control) is “inactive”. Also, the inhibition entry with Candida albicans [32] was “Active”. In the series on Candida albicans [33], this compound gave an inhibition at 4 µg/mL of 7.44%. For the same compound, the inhibition at 2 µg/mL with Candida albicans [34] was 15.6%. Moreover, in series [37], the peak level (Cmax) was 239 ng/mL. The total exposure AUC(0-inf) (in general, the area under the concentration-time curve extrapolated to infinity) in series [38] came out at 158 ng·h/mL.
With `OC(Cn1cncn1)(Cn1cncn1)c1ccc(F)cc1F` [FLUCONAZOLE], in the series on Candida albicans [39], the Activity was found to be 5.66 log10CFU/ml.
